Data: paper PMC8361937, “Multifunctional Heterometallic Ir^III−Au^I Probes as Promising Anticancer and Antiangiogenic Agents” (Chemistry (Weinheim an Der Bergstrasse, Germany), 2021)
Where two headings read alike, the source gives them in different places.

Key:
[1] = test system: A549 lung carcinoma cells; assay: MTT-reduction cell viability assay in A549 cells; type: cell-based, human; conditions: 24 h incubation
Procedure: In vitro bioactivity of complexes 1 to 4 as well as their dimer precursor was determined by MTT‐reduction assays in A549 lung carcinoma cells (Table 2). […] Cells show an increased sensitivity to the heterobimetallic species bearing a phosphine or a thiocytosine group as gold ancillary ligand, complexes 2 and 4 respectively. The higher balance of the lipo‐ vs hydrophilicity of triphenylphosphine[35] of complex 2, or the bio‐friendly nature of the thiocytosine ancillary ligand[36, 37] in the case of complex 4 might promote an increase of the cell permeabilisation and thus display a greater antiproliferative activity.
Cell culture: A549 (human lung carcinoma) cell line (from ATCC, USA) was routinely cultured in high glucose DMEM medium supplemented with 5 % foetal bovine serum (FBS), L‐glutamine and penicillin/streptomycin (hereafter, complete medium).
Cell viability assays : The MTT‐reduction assay was used to analyse cell metabolic activity as an indicator for cell sensitivity to the complexes in A549 cell line. 10^5 cells/mL were seeded in complete medium in flat‐bottom, 96‐well plates (100 μL/well) and allowed to attach for 24 h prior to addition of compounds. The complexes were dissolved in DMSO and added to cells in concentrations ranging from 0.5 to 50 μM in quadruplicate. Cells were incubated with our compounds for 24 h and then 10 μL of MTT (5 mg mL^−1 in PBS) were added to each well and plates were incubated for 2 h at 37 °C. Finally, culture medium was removed and DMSO (100 μL/well) was added to dissolve the formazan crystals. The optical density was measured at 550 nm using a 96‐well multiscanner autoreader (ELISA) and IC50 was calculated. Each compound was analysed at least in three independent experiments.

[2] = test system: ucb‐ECFCs; assay: Crystal violet cell viability assay in ucb-ECFCs; type: cell-based, human; conditions: 24 h
Procedure: (§1) Effects on the cell viability related to compounds 1, 2 and 4 were analysed by crystal violet assays in ucb‐ECFCs and apb‐ECFCs. Both kinds of cells show a dose‐dependent sensitivity to the complexes after 24 h of treatment (Figure S30). IC50 values were on the range 1.1‐3.6 μM, ucb‐ECFCs being more sensitive than apb‐ECFCs to the compounds (Table 3), which could be associated to the increased proliferative activity of the ucb‐ECFCs.
(§2) Endothelial colony forming cells (ECFC) were isolated from umbilical cord blood from healthy births but unsuitable for transplantation (ucb‐ECFCs), or from peripheral blood of adult healthy donors (apb‐ECFCs) following the method described by Ingram et al.[57] with minor modifications. […]
(§3) For ECFCs cell viability determination, crystal violet assays were performed. […] Estimation of cell density was achieved by solubilisation of cell‐retained crystal violet with 10 % acetic acid solution and absorbance measurement at 540 nm in a Synergy HD system (BioTek). Data were analysed with SAIC50 v1.5.10 (http://gauss.inf.um.es:8080/IC50/) using the four‐parameter logistic function to calculate IC50 values according to Sebaugh et al.[58]

[3] = test system: apb‐ECFCs; assay: Crystal violet cell viability assay in apb-ECFCs; type: cell-based, human; conditions: 24 h
Procedure: as §1, §2, §3

[4] = test system: ucb‐ECFCs; assay: Annexin V-FITC/PI apoptosis determination in ucb-ECFCs; type: cell-based, human; conditions: 4 μM, 3 h
Procedure: (§4) An apoptosis determination test was performed under acute conditions, that is, incubation for a short period of time (3 h) and high concentration of complexes (4 μM; Table 4). A different response was observed regarding the origin of the ECFCs. While the cytotoxic effect on ucb‐ECFCs was similar for all complexes (ca. 20 %), mortality levels of 50 % were achieved on apb‐ECFCs with complexes 1 and 4. On the contrary, complex 2 appeared to be no toxic under these conditions.
(§5) For apoptosis assessment on ECFCs cells exposed to 1, 2 and 4 complexes, an Annexin V apoptosis detection kit (Immunostep), with FITC‐conjugated Annexin V and propidium iodide (PI), was used. Cells were incubated during 3 h with 1, 2 and 4 at 4 μM, gently detached from cell culture surface with Accutase (Corning) and resuspended in D‐PBS, and stained with FITC‐conjugated annexin V and PI according to manufacturer instructions. Data were acquired using a Gallios Flow Cytometer (Beckman Coulter), and Kaluza v2.1 (Beckman Coulter) software was used for data analysis.

[5] = test system: apb‐ECFCs; assay: Annexin V-FITC/PI apoptosis determination in apb-ECFCs; type: cell-based, human; conditions: 4 μM, 3 h; for Early apoptotic / Late apoptotic / Necrotic / Viable: apb ECFCs; for Mortality level: apb‐ECFCs
Procedure: as §4, §5

[6] = test system: A549 cells; assay: Mitochondrial transmembrane potential analysis (TMRE, flow cytometry); type: cell-based, human; conditions: 48 h
From the text: TMRE is a positively charged dye that accumulates in cells with active mitochondria as consequence of their net internal negative charge but several cell insults, including chemotherapeutic agents, lead to mitochondrial depolarisation and thus TMRE incorporation fails. A shift is seen in the pattern staining for complexes 1 (Figure S29) and 4 (Figure 13) in comparison with untreated cells and this overlaps with that seen when treating cells with S63845 (positive control), a selective inhibitor of the Mcl‐1 antiapoptotic protein involved in the regulation of the mitochondrial apoptotic pathway.
Mitochondrial transmembrane potential analysis: Integrity of the mitochondrial outer membrane was evaluated by measuring disruption of mitochondrial transmembrane potential. For this assay, 10^5 A549 cells/mL were seeded in complete medium in flat‐bottom, 12‐well plates (1 mL/well) and allowed to attach for 24 h prior to addition of compounds. Cells were treated for 48 h with compound 4 at 150 μM in duplicate. Then, they were trypsinised, resuspended in 500 μl of a mixture of complete medium and 60 nM of the tetramethilrhodamine ethyl ester (TMRE) probe and incubated at 37 °C in the dark for 20 min. Finally, a total of 10 000 cells were acquired on a FACSCalibur flow cytometer (BD Biosciences) and data were analysed using the aforementioned software.

[7] = test system: A549 cells; assay: ROS production measurement (CellROX, flow cytometry); type: cell-based, human; conditions: 24 h, up to 80 % of IC50
Procedure: The generation of ROS was analysed by flow cytometry using a fluorogenic CellROX^TM assay kit. Complexes 1 and 4 were selected for the experiment to discriminate between the effects that might drive the presence of the gold fragment. […] Such increment might be in fact associated with the presence of the gold fragment as many reported gold species have shown to induce oxidative stress.[43] Therefore, this experiment seems to indicate that the introduction of the gold fragment activates to a higher extent the mechanisms of ROS generation in A549 cells.
ROS production measurement: 5×10^5 A549 cells/well were seeded in complete medium in flat‐bottom, 6‐well plates (3 mL/well) and allowed to attach for 24 h prior to addition of the compound. Complexes 1 and 4 were dissolved in DMSO and added to cells up to concentration of 80 % (IC50) in duplicate. Cells were incubated with the complexes for 24 h and subsequently, they were trypsinised and the CellROX®Green Flow cytometry assay kit (C10492) was used to evaluate the generation of ROS in a Gallios Flow Cytometer (Beckman Coulter) using Kaluza v2.1 software for data analysis.

[8] = test system: A549 cells; assay: Cell death mechanism by Annexin V-DY634/7-AAD flow cytometry with or without Z-VAD-fmk; type: cell-based, human; conditions: 24 and 48 h, 30 μM Z‐VAD‐fmk
Procedure: For flow cytometry analysis, phosphatidylserine exposure on cell surface as an “early apoptosis” marker and cell membrane damage as necrosis indicator were evaluated with Annexin V‐DY634 (apoptosis) and the DNA‐labelling dye 7‐AAD (necrosis) staining. […] As shown in Figures 4 and S22 (top graphs), cells are distributed in three populations. Annexin V‐DY634‐only positive cells are indicative of an early apoptotic process, a 7‐AAD‐only labelled cell population represents exploded cells as a typical endpoint of necrotic cell death, and the doubly stained population implies that cells started being apoptotic and then eventually burst, a phenomenon known as “late apoptosis”. It is remarkable that late apoptosis state was easily reached at higher concentrations for both complexes. […] As both compounds activate apoptotic pathway, we wanted to unveil whether caspases were implicated in the cell death process by using the pan‐caspase inhibitor Z‐VAD‐fmk.
Cytotoxicity assays: Apoptotic and necrotic cell death was determined by measuring phosphatidylserine exposure on cell surface and cell membrane permeabilisation, respectively, in A549 cells. […] Cell death was analysed using CellQuest Pro (BD Biosciences), FlowJo 7.6.1 (Becton Dickinson (BD), USA) and GraphPad Prism 5 (GraphPad Software, USA) software.

[9] = test system: ECFCs; assay: In vitro tube formation (angiogenic activity) assay; type: cell-based, human; conditions: 0.25 μM, 20 h, ucb- and apb-ECFCs
Procedure: In vitro tube formation assay is a highly informative test to probe angiogenic ability of endothelial cells.[55] This observation could be the basis to consider their potential antiangiogenic activity and develop complementary assays in more physiologically relevant models. […] The mechanisms involved in this effect deserve further research.
Tube formation assay: Endothelial cells (10 000 cell/well) suspended in cell culture medium containing each compound at 0.25 μM or vehicle (DMSO) were seeded over Cultrex® Reduced Growth Factor Basement Membrane Matrix (Trevigen) gelled (37 °C for 30 min) in wells of μ‐Slide Angiogenesis coverslips (ibidi). DMSO concentration in the medium was below 0.5 %. Cells were then incubated for a 20 h period with the treatments. Images were acquired with a Moticam 3 digital camera system (Motic) through a CK40 inverted microscope (Olympus) using a 10x objective.

[10] = test system: A549 lung carcinoma cells; conditions: cited from earlier work

Compound	IC50 [1] [nM]	IC50 [2] [nM]	IC50 [3] [nM]	Early apoptotic [4] [%]	Late apoptotic [4] [%]	Necrotic [4] [%]	Viable [4] [%]	Early apoptotic [5] [%]	Late apoptotic [5] [%]	Necrotic [5] [%]	Viable [5] [%]	Mortality level [5]	Disruption of mitochondrial transmembrane potential (TMRE staining) [6]	ROS generation [7]	Cell death mechanism (effect of pan-caspase inhibitor Z-VAD-fmk) [8]	Tube formation activity of ECFCs on Cultrex matrix [9]	IC50 [10] [nM]
F[P-](F)(F)(F)(F)F.c1ccc([P+]2(c3ccccc3)C[P+](c3ccccc3)(c3ccccc3)[Ir-3]234([c]2ccccc2-c2cccc[n+]23)[c]2ccccc2-c2cccc[n+]24)cc1 [Complex 1, [Ir(ppy)2(dppm)]PF6]	1000 ± 80	1160	2710	1.12	21.81	3.96	73.10	8.30	51.93	9.02	30.75	50%	complete disruption of mitochondrial transmembrane potential	dose‐dependent increase in the generation of ROS	caspase‐independent cell death mechanism	reduced although not completely impaired	
F[P-](F)(F)(F)(F)F.c1ccc([P+]([Au-][CH]2[P+](c3ccccc3)(c3ccccc3)[Ir-3]34([c]5ccccc5-c5cccc[n+]53)([c]3ccccc3-c3cccc[n+]34)[P+]2(c2ccccc2)c2ccccc2)(c2ccccc2)c2ccccc2)cc1 [Complex 2]	800 ± 60	2630	3520	0.93	17.24	5.01	76.82	9.22	8.40	0.14	82.25	no toxic				reduced although not completely impaired	
[Cl][AuH][CH]1[P+](c2ccccc2)(c2ccccc2)[Ir-3]23([c]4ccccc4-c4cccc[n+]42)([c]2ccccc2-c2cccc[n+]23)[P+]1(c1ccccc1)c1ccccc1 [Complex 3]	1700 ± 80																
N.N.[Cl][Pt][Cl] [cisplatin, reference compound]																	20800 ± 2100
c1cc[c]2c(c1)-c1cccc[n+]1[Ir-3]213([Cl+][Ir-3]24([Cl+]1)([c]1ccccc1-c1cccc[n+]12)[c]1ccccc1-c1cccc[n+]14)[c]1ccccc1-c1cccc[n+]13 [dimer, [Ir(ppy)2(μ‐Cl)]2]	> 50000																
